We go through seven molecules from ChEMBL document CHEMBL1153619, “The role of phenolic hydroxy groups in the free radical scavenging activity of betalains” (J Nat Prod, 2009).

The structures appear in SMILES notation.

A short description of data set [1]: ABTS radical scavenging activity assessed as Trolox equivalent antioxidant capacity index at pH 7 by spectrophotometry. It counts as physicochemical.
Data set [2] can be described thus: Antioxidant activity assessed as Trolox molar equivalence for reduction of Fe(III) at pH 3.6 by ferric reducing antioxidant power assay. It counts as functional.

On to `O=C(O)C1=C/C(=C\C=N/CCc2cccc(O)c2)C[C@@H](C(=O)O)N1`, for which the figures for the Activity in data set [1] and in data set [2] were 4.1 and 2.7, respectively.

In the case of `O=C(O[C@@H]1Cc2c(O)cc(O)cc2O[C@@H]1c1cc(O)c(O)c(O)c1)c1cc(O)c(O)c(O)c1` [EPIGALOCATECHIN GALLATE], in data set [1], the Activity was found to be 4.8.

For the molecule `O=C(O)C1=C/C(=C\C=N/CCc2ccccc2)C[C@@H](C(=O)O)N1`, the Activity in data set [1] is 2.3; in data set [2], 1.1.

Consider `O=C(O)C1=C/C(=C\C=N/CCc2ccc(O)c(O)c2)C[C@@H](C(=O)O)N1`, for which the Activity in data set [2] turned out to be 3.3.

With `O=C(O)C1=C/C(=C\C=N/CCc2ccc(O)cc2)C[C@@H](C(=O)O)N1`, the Activity in data set [1] worked out at 4; in data set [2], 1.1.

On to `Oc1ccc(/C=C/c2cc(O)cc(O)c2)cc1` [RESVERATROL], for which the Activity in data set [1] stood at 2.7.

With `CCC/N=C\C=C1/C=C(C(=O)O)N[C@H](C(=O)O)C1`, in data set [2], the Activity turned out to be 1.1.
